# Experimental data published in patent US20170299609A1, “TREATMENT OF AMYOTROPHIC LATERAL SCLEROSIS WITH SK CHANNEL ACTIVATORS” (Wright State University, priority 2016, published 2017).
# Columns and labels:
# Format in all cases: in vivo
# [1] = system: G93A high expressor line of transgenic male ALS mice with a B6SJL background; assay: Rotarod motor function of transgenic ALS mice, CyPPA given P5 to P20 (Example 1); details: CyPPA 0.014 μg/kg daily IP for 16 days (P5-P20)
# Method: (§1) Thus, the effect of SK channel activators on survival and motor function of the G93A high expressor line of transgenic male ALS mice with a B6SJL background (hereinafter, “transgenic ALS mice”) was characterized. The transgenic ALS mice carry a mutation of the superoxide dismutase 1 gene; as a result, the transgenic ALS mice develop a neurodegenerative disease which closely mimics ALS in humans. In this experiment, CyPPA (n=13) or vehicle solution (i.e., saline+11% DMSO, n=12) was administered early to the transgenic ALS mice for sixteen (16) days (between ages P5 and P20) via daily intraperitoneal (i.e., IP) injection. CyPPA was administered at a dose of 0.014 μg/kg in both experiments.
# (§2) In this experiment, the effect of CyPPA on survival of the transgenic ALS mice was assessed by determining when the transgenic ALS mice met end point criteria, i.e., full paralysis of both hind limbs and failing to right themselves 30 seconds after being turned on their backs. Additionally, the effect of CyPPA on motor function of the transgenic ALS mice was assessed by daily measuring from the age of P85 to the end stage using the rotarod machine. More specifically, the transgenic ALS mice were placed on a rotating rod for four minutes at a speed of 5 rotations per minute (i.e., RPM). The speed was increased to 25 RPM and the transgenic ALS mice were deemed unable to complete the task if they could complete only five percent (i.e., 12 seconds) of the task (i.e., the end stage). Rotarod performance was assessed to detect onset of symptoms associated with the neurodegenerative disease mimicking ALS in humans in the transgenic ALS mice and/or to monitor disease progression in the transgenic ALS mice, such as, e.g., via characterizing the rate of loss of motor function.
# [2] = system: G93A high expressor line of transgenic male ALS mice with a B6SJL background; assay: Survival of transgenic ALS mice, CyPPA given P5 to P20 (Example 1); details: CyPPA 0.014 μg/kg daily IP for 16 days (P5-P20)
# Method: as §1, §2
# [3] = system: G93A high expressor line of transgenic male ALS mice with a B6SJL background; assay: Rotarod motor function of transgenic ALS mice, CyPPA given at ALS onset P90 to P96 (Example 2); details: CyPPA 0.014 μg/kg daily IP for 7 days (P90-P96); 92 to 105 and 112 to 119 days of age; FIG. 4
# Method: Because symptoms of ALS in the transgenic ALS mice emerge around P90, the effect of administering CyPPA at P90 was characterized. Without being bound by the theory, it is believed that administration of CyPPA in the transgenic ALS mice at ALS onset would correlate to beginning treatment in humans upon diagnosis of ALS. In this experiment, CyPPA (n=14) or vehicle solution (i.e., saline+11% DMSO; n=14) was administered to the transgenic ALS mice for seven (7) days (between ages P90 and P96) via daily IP injection. CyPPA was administered at a dose of 0.014 μg/kg.
# as §2, with “stage).” for “stage). Rotarod performance was assessed to detect onset of symptoms associated with the neurodegenerative disease mimicking ALS in humans in the transgenic ALS mice and/or to monitor disease progression in the transgenic ALS mice, such as, e.g., via characterizing the rate of loss of motor function.”
smiles,measurement,setting,value
Cc1cc(NC2CCCCC2)nc(-n2nc(C)cc2C)n1 [CyPPA],time able to stay on the rotarod relative to vehicle control,"[1]; 122 to 126 days of age, FIG. 3",significantly longer
same,able to complete the rotarod task longer than vehicle-injected mice,[1]; FIG. 2,5 days
same,reduction of rate of decline in motor function relative to vehicle control,"[1]; FIG. 3, p=0.0017",~40%
same,slope of decline in motor function (rotarod percent complete vs days of age),"[1]; FIG. 3 line A, vehicle slope 0.0349",0.0211
same,longer survival relative to control injected with vehicle solution,[2],10 days
same,increase in mean survival over control injected with vehicle solution,[2]; p=0.0063,~8%
same,mean survival,"[2]; vehicle 125.76 days, p=0.0063",135.72 days
same,average motor function (rotarod completion ratio) versus vehicle control,[3],significantly better
